From US20160176867A1, “MODIFIED BET-PROTEIN-INHIBITING DIHYDROQUINOXALINONES AND DIHYDROPYRIDOPYRAZINONES” (BAYER PHARMA AKTIENGESELLSCHAFT, priority 2013, published 2016)

Experiments:
[1] = target: T1, BRD4 bromo domain 1 [BRD4(1)] (Homo sapiens, UniProt O60885); assay: BRD4/acetylated peptide H4 binding assay (TR-FRET), BRD4 bromo domain 1; conditions: inhibition of BRD4(1)/Ac-H4 peptide interaction
T1 construct: N-terminally His6-tagged BRD4(1) (amino acids 67-152); made in house; host or cells: E. coli
Summary of the method: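 TR-FRET (665/620 nm ratio) measuring displacement of biotinylated tetra-acetylated H4 peptide from His6-BRD4(1) (aa 67-152, E. coli; typically 10 nM) at pH 7.5. Compound (11 concentrations, 0.1 nM–20 μM, duplicates) was preincubated 10 min at 22°C, then 1 h at 22°C and ≥3 h at 4°C; IC50 from 4-parameter fit normalized to DMSO and no-BRD4 controls.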

CHL-1 cells = assay: Cell proliferation assay (alamarBlue), CHL-1; format: cell-based; conditions: Homo sapiens; CHL-1 (melanoma, BRAF wild-type), 96 hours
Experimental: (§1) In accordance with the invention, the ability of the substances to inhibit cell proliferation was determined. Cell viability was determined by means of the alamarBlue® reagent (Invitrogen) in a Victor X3 Multilabel Reader (Perkin Elmer). The excitation wavelength was 530 nm and the emission wavelength […].
The CHL-1 cells (ATCC, CRL-9446) were sown at a concentration of 1000 cells/well in 100 μl of growth medium (DMEM with glutamine, 10% FCS) on 96-well microtitre plates.
(§2) After overnight incubation at 37° C., the fluorescence values were determined (CI values). Then the plates were treated with various substance dilutions (1E-5 M, 3E-6 M, 1E-6 M, 3E-7 M, 1E-7 M, 3E-8 M, 1E-8 M) and incubated at 37° C. over 96 hours (MOLM-13, B16F10, CHL-1 cells) or 120 hours (MOLP-8 cells). Subsequently, the fluorescence values were determined (CO values). For the data analysis, the CI values were subtracted from the CO values and the results were compared between cells which had been treated with various dilutions of the substance or only with buffer solution. The IC50 values (substance concentration needed for 50% inhibition of cell proliferation) were calculated therefrom.

MOLM-13 cells = assay: Cell proliferation assay (alamarBlue), MOLM-13; format: cell-based; conditions: Homo sapiens; MOLM-13 (acute myeloid leukaemia), 96 hours
Experimental: as §1
The MOLM-13 cells (DSMZ, ACC 554) were sown at a concentration of 4000 cells/well in 100 μl of growth medium (RPMI1640, 10% FCS) on 96-well microtitre plates.
as §2

SMILES | IC50 [1] | IC50 (CHL-1 cells) | IC50 (MOLM-13 cells)
C[C@@H]1C(=O)N(C)c2ccc(Nc3cccc(S(=O)(=O)NCC4CCN(C)CC4)c3)nc2N1C1CCOCC1 [Example 44, 3-{[(3R)-1,3-dimethyl-2-oxo-4-(tetrahydro-2H-pyran-4-yl)-1,2,3,4-tetrahydropyrido[2,3-b]pyrazin-6-yl]amino}-N-[(1-methylpiperidin-4-yl)methyl]benzene-sulphonamide] | 50 nM | 362 nM | 253 nM
CC(C)CN1c2nc(Nc3cccc(S(=O)(=O)N[C@H]4CC[C@H](N5CCN(CC6CC6)CC5)CC4)c3)ccc2N(C)C(=O)[C@H]1C [Example 45, N-{trans-4-[4-(cyclopropylmethyl)-piperazin-1-yl]cyclohexyl}-3-{[(3R)-4-isobulyl-1,3-dimethyl-2-oxo-1,2,3,4-tetrahydropyrido[2,3-b]pyrazin-6-yl]amino}-benzenesulphonamide] | 51 nM | 81 nM | 126 nM
COc1ccc(S(=O)(=O)N2CCN(C)CC2)cc1Nc1ccc2c(n1)N(C1CCN(C)CC1)[C@H](C)C(=O)N2C [Example 46, (3R)-6-({2-methoxy-5-[(4-methylpiperazin-1-yl)sulphonyl]phenyl}-amino)-1,3-dimethyl-4-(1-methylpiperidin-4-yl)-3,4-dihydropyrido[2,3-b]pyrazin-2(1H)-one] | 51 nM | 64 nM | 45 nM
C[C@@H]1C(=O)N(C)c2ccc(Nc3cccc(S(=O)(=O)N4CCOCC4)c3)nc2N1C1CCN(C)CC1 [Example 47, (3R)-1,3-dimethyl-4-(1-methylpiperidin-4-yl)-6-{[3-(morpholin-4-ylsulphonyl)phenyl]-amino}-3-4-dihydropyrido-[2,3-b]pyrazin-2(1H)-one] | 21 nM | 20 nM | 51 nM
C[C@@H]1C(=O)N(C)c2ccc(Nc3cccc(S(=O)(=O)NC4CCN(C)CC4)c3)nc2N1C1CCCCCC1 [Example 48, 3-{[(3R)-4-cycloheptyl-1,3-dimethyl-2-oxo-1,2,3,4-tetrahydropyrido-[2,3-b]pyrazin-6-yl]amino}-N-(1-methylpiperidin-4-yl)benzenesulphonamide] | 75 nM | 111 nM | 240 nM
C[C@@H]1C(=O)N(C)c2ccc(Nc3cccc(S(=O)(=O)N4CCN(C)CC4)c3)nc2N1C1CCN(C)CC1 [Example 50, (3R)-1,3-dimethyl-6-({3-[(4-methylpiperazin-1-yl)sulphonyl]phenyl}-amino)-4-(1-methyl-piperidin-4-yl)-3,4-dihydropyrido[2,3-b]pyrazin-2(1H)-one] | 76 nM | 118 nM | 213 nM
C[C@@H]1C(=O)N(C)c2ccc(Nc3cccc(S(=O)(=O)N[C@H]4CC[C@H](N5CCN(CC6CC6)CC5)CC4)c3)nc2N1C1CCN(C(=O)OC(C)(C)C)CC1 [Example 52, tert-butyl 4-[(3R)-6-{[3-({trans-4-[4-(cyclo-propylmethyl)piperazin-1-yl]cyclohexyl}-sulphamoyl)phenyl]amino}-1,3-dimethyl-2-oxo-2,3-dihydropyrido[2,3-b]pyrazin-4(1H)-yl]piperidine-1-carboxylate] | 80 nM | 147 nM | 180 nM
C[C@@H]1C(=O)N(C)c2ccc(N(C)c3cccc(S(=O)(=O)N(C)C)c3)nc2N1C1CCOCC1 [Example 54, 3-{[(3R)-1,3-dimethyl-2-oxo-4-(tetrahydro-2H-pyran-4-yl)-1,2,3,4-tetrahydropyrido[2,3-b]pyrazin-6-yl](methyl)-amino}-N,N-dimethyl-benzenesulphonamide] | 106 nM | 156 nM | 233 nM
C[C@@H]1C(=O)N(C)c2ccc(Nc3ccc4c(c3)S(=O)(=O)NC4)nc2N1C1CCOCC1 [Example 56, (3R)-6-[(1,1-dioxido-2,3-dihydro-1,2-benzothiazol-6-yl)amino]-1,3-dimethyl-4-(tetrahydro-2H-pyran-4-yl)-3,4-dihydropyrido[2,3-b]pyrazin-2(1H)-one] | 112 nM | 181 nM | 239 nM
C[C@@H]1C(=O)N(C)c2ccc(Nc3cccc(S(=O)(=O)NC4CCN(C)CC4)c3)nc2N1C1CCN(C(=O)OC(C)(C)C)CC1 [Example 57, tert-butyl 4-[(3R)-1,3-dimethyl-6-({3-[(1-methylpiperidin-4-yl)sulphamoyl]phenyl}-amino)-2-oxo-2,3-dihydro-pyrido[2,3-b]pyrazin-4(1H)-yl]piperidine-1-carboxylate] | 114 nM | 175 nM | 193 nM
C[C@@H]1C(=O)N(C)c2ccc(Nc3cccc(S(N)(=O)=O)c3)nc2N1C1CCOCC1 [Example 58, 3-{[(3R)-1,3-dimethyl-2-oxo-4-(tetrahydro-2H-pyran-4-yl)-1,2,3,4-tetrahydropyrido[2,3-b]pyrazin-6-yl]amino}-benzenesulphonamide] | 139 nM | 299 nM | 378 nM
C[C@@H]1C(=O)N(C)c2ccc(Nc3cccc(S(=O)(=O)NCCN(C)C)c3)nc2N1C1CCN(C(=O)OC(C)(C)C)CC1 [Example 59, tert-butyl 4-[(3R)-6-[(3-{[2-(dimethylamino)ethyl]-sulphamoyl}phenyl)amino]-1,3-dimethyl-2-oxo-2,3-dihydropyrido[2,3-b]pyrazin-4(1H)-yl]piperidine-1-carboxylate] | 156 nM | 204 nM | 516 nM
C[C@@H]1C(=O)N(C)c2ccc(Nc3cccc(C(=O)N[C@H]4CC[C@H](N5CCN(CC6CC6)CC5)CC4)c3)nc2N1Cc1ccccc1 [Example 72, 3-{[(3R)-4-benzyl-1,3-dimethyl-2-oxo-1,2,3,4-tetrahydropyrido[2,3-b]pyrazin-6-yl]amino}-N-{trans-4-[4-(cyclo-propylmethyl)piperazin-1-yl]cyclohexyl}benzamide] | 62 nM | 106 nM | 250 nM
C[C@@H]1C(=O)N(C)c2ccc(Nc3cccc(C(=O)NC4CCN(C)CC4)c3)nc2N1Cc1ccccc1 [Example 73, 3-{[(3R)-4-benzyl-1,3-dimethyl-2-oxo-1,2,3,4-tetrahydropyrido[2,3-b]pyrazin-6-yl]amino}-N-(1-methylpiperidin-4-yl)benzamide] | 77 nM | 80 nM | 110 nM
C[C@@H]1C(=O)N(C)c2ccc(Nc3cccc(C(=O)NCCN4CCN(C)CC4)c3)nc2N1Cc1ccccc1 [Example 74, 3-{[(3R)-4-benzyl-1,3-dimethyl-2-oxo-1,2,3,4-tetrahydropyrido[2,3-b]pyrazin-6-yl]amino}-N-[2-(4-methylpiperazin-1-yl)ethyl]benzamide] | 87 nM | 83 nM | 157 nM
C[C@@H]1C(=O)N(C)c2ccc(Nc3cccc(C(=O)N4CCN(C)CC4)c3)nc2N1Cc1ccccc1 [Example 75] | 118 nM | 125 nM | 197 nM
C[C@@H]1C(=O)N(C)c2ccc(Nc3cccc(C(=O)N[C@H]4CC[C@H](N5CCN(CC6CC6)CC5)CC4)c3)nc2N1c1ccc(F)cc1 [Example 93] | 466 nM | 539 nM | 410 nM
C[C@@H]1C(=O)N(C)c2ccc(Nc3cccc(S(=O)(=O)N4CC5(CCC5)C4)c3)nc2N1C1CCNCC1 [Example 122, (3R)-6-{[3-(2-Azaspiro[3.3]hept-2-ylsulphonyl)phenyl]amino}-1,3-dimethyl-4-(piperidin-4-yl)-3,4-dihydropyrido[2,3-b]pyrazin-2(1H)-one] | 21 nM | 712 nM | 396 nM
C[C@@H]1C(=O)N(C)c2ccc(Nc3cccc(S(=O)(=O)N(C)C)c3)nc2N1C1CCNCC1 [Example 123, 3-{[(3R)-1,3-dimethyl-2-oxo-4-(piperidin-4-yl)-1,2,3,4-tetrahydropyrido[2,3-b]pyrazin-6-yl]amino}-N,N-dimethylbenzene-sulphonamide] | 18 nM | 218 nM | 140 nM
C[C@@H]1C(=O)N(C)c2ccc(Nc3cccc(S(=O)(=O)NC4CCN(C)CC4)c3)nc2N1C1CCNCC1 [Example 124, 3-{[(3R)-1,3-dimethyl-2-oxo-4-(piperidin-4-yl)-1,2,3,4-tetrahydropyrido[2,3-b]pyrazin-6-yl]amino}-N-(1-methylpiperidin-4-yl)benzenesulphonamide] | 30 nM | > 20000 nM | > 20000 nM
C[C@@H]1C(=O)N(C)c2ccc(Nc3cccc(S(=O)(=O)N4CCN(C)CC4)c3)nc2N1C1CCNCC1 [Example 125, (3R)-1,3-dimethyl-6-({3-[(4-methylpiperazin-1-yl)sulphonyl]phenyl}amino)-4-(piperidin-4-yl)-3,4-dihydropyrido[2,3-b]pyrazin-2(1H)-one] | 37 nM | 2260 nM | 383 nM
